Source: patent US10485235B2, “Aryloxypyrimidinyl ethers as herbicides” (FMC Corporation, priority 2015, dated 2019)

Experiments:
Assay type in all cases: in vivo
[1] = tested on: sedge, umbrella (small-flower umbrella sedge, Cyperus difformis); experiment: Test B flooded paddy test, umbrella sedge; conditions: 250 g ai/ha, Flood; visual rating after 13 to 15 days; scale 0 to 100, 0 is no effect, 100 is complete control
Description: (§1) Plant species in the flooded paddy test selected from rice (Oryza sativa), sedge, umbrella (small-flower umbrella sedge, Cyperus difformis), ducksalad (Heteranthera limosa), and barnyardgrass (Echinochloa crus-galli) were grown to the 2-leaf stage for testing. At time of treatment, test pots were flooded to 3 cm above the soil surface, treated by application of test compounds directly to the paddy water, and then maintained at that water depth for the duration of the test. Treated plants and controls were maintained in a greenhouse for 13 to 15 days, after which time all species were compared to controls and visually evaluated. Plant response ratings, summarized in Table B, are based on a scale of 0 to 100 where 0 is no effect and 100 is complete control. A dash (—) response means no test result.

[2] = tested on: foxtail, giant (giant foxtail, Setaria faberii); experiment: Test A preemergence, giant foxtail; conditions: Preemergence, 0 to 100 scale (0 no effect, 100 complete control)
Outline: (§2)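 Plants grown in pots of loam blended with sand were treated either before emergence, via directed soil spray, or after emergence at the one- to two-leaf stage. Following about 10 days in the greenhouse, each treatment was visually compared with untreated controls and rated from 0 (no effect) to 100 (complete control).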

rice (Oryza sativa) = experiment: Test B flooded paddy test, rice; conditions: 250 g ai/ha, Flood; visual rating after 13 to 15 days; scale 0 to 100, 0 is no effect, 100 is complete control
Description: as §1

[3] = tested on: pigweed (Amaranthus retroflexus); experiment: Test A postemergence, pigweed; conditions: postemergence, 0 to 100 scale, 0 is no effect, 100 is complete control, approximately 10 days
Outline: as §2

[4] = tested on: barnyardgrass (Echinochloa crus-galli); experiment: Test A postemergence, barnyardgrass; conditions: postemergence, 0 to 100 scale, 0 is no effect, 100 is complete control, approximately 10 days
Outline: as §2

corn (Zea mays) = experiment: Test A postemergence, corn; conditions: postemergence, 0 to 100 scale, 0 is no effect, 100 is complete control, approximately 10 days
Outline: as §2

[5] = tested on: pigweed (Amaranthus retroflexus); experiment: Test A preemergence, pigweed; conditions: Preemergence, 0 to 100 scale (0 no effect, 100 complete control)
Outline: as §2

[6] = tested on: wheat (Triticum aestivum); experiment: Test A postemergence, wheat; conditions: postemergence, 0 to 100 scale, 0 is no effect, 100 is complete control, approximately 10 days
Outline: as §2

[7] = tested on: ragweed (common ragweed, Ambrosia elatior); experiment: Test A postemergence, ragweed; conditions: postemergence, 0 to 100 scale, 0 is no effect, 100 is complete control, approximately 10 days
Outline: as §2

[8] = tested on: galium (catchweed bedstraw, Galium aparine); experiment: Test A postemergence, galium; conditions: postemergence, 0 to 100 scale, 0 is no effect, 100 is complete control, approximately 10 days
Outline: as §2

[9] = tested on: ryegrass, Italian (Italian ryegrass, Lolium multiflorum); experiment: Test A postemergence, Italian ryegrass; conditions: postemergence, 0 to 100 scale, 0 is no effect, 100 is complete control, approximately 10 days
Outline: as §2

[10] = tested on: foxtail, giant (giant foxtail, Setaria faberii); experiment: Test A postemergence, giant foxtail; conditions: postemergence, 0 to 100 scale, 0 is no effect, 100 is complete control, approximately 10 days
Outline: as §2

kochia (Kochia scoparia) [11] = experiment: Test A preemergence, kochia; conditions: Preemergence, 0 to 100 scale (0 no effect, 100 complete control)
Outline: as §2

[12] = tested on: blackgrass (Alopecurus myosuroides); experiment: Test A postemergence, blackgrass; conditions: postemergence, 0 to 100 scale, 0 is no effect, 100 is complete control, approximately 10 days
Outline: as §2

[13] = tested on: barnyardgrass (Echinochloa crus-galli); experiment: Test B flooded paddy test, barnyardgrass; conditions: 250 g ai/ha, Flood; visual rating after 13 to 15 days; scale 0 to 100, 0 is no effect, 100 is complete control
Description: as §1

[14] = tested on: barnyardgrass (Echinochloa crus-galli); experiment: Test A preemergence, barnyardgrass; conditions: Preemergence, 0 to 100 scale (0 no effect, 100 complete control)
Outline: as §2

kochia (Kochia scoparia) [15] = experiment: Test A postemergence, kochia; conditions: postemergence, 0 to 100 scale, 0 is no effect, 100 is complete control, approximately 10 days
Outline: as §2

[16] = tested on: ragweed (common ragweed, Ambrosia elatior); experiment: Test A preemergence, ragweed; conditions: Preemergence, 0 to 100 scale (0 no effect, 100 complete control)
Outline: as §2

[17] = tested on: ducksalad (Heteranthera limosa); experiment: Test B flooded paddy test, ducksalad; conditions: 250 g ai/ha, Flood; visual rating after 13 to 15 days; scale 0 to 100, 0 is no effect, 100 is complete control
Description: as §1

[18] = tested on: ryegrass, Italian (Italian ryegrass, Lolium multiflorum); experiment: Test A preemergence, Italian ryegrass; conditions: Preemergence, 0 to 100 scale (0 no effect, 100 complete control)
Outline: as §2

SMILES | Plant response rating, Sedge, Umbrella [1] | Plant response rating, Foxtail, Giant ([2]; 125 g ai/ha) | Plant response rating, Foxtail, Giant ([2]; 500 g ai/ha) | Plant response rating, Rice (rice (Oryza sativa)) | Plant response rating, Pigweed ([3]; 125 g ai/ha) | Plant response rating, Pigweed ([3]; 500 g ai/ha) | Plant response rating, Barnyardgrass ([4]; 125 g ai/ha) | Plant response rating, Barnyardgrass ([4]; 500 g ai/ha) | Plant response rating, Corn (corn (Zea mays); 125 g ai/ha) | Plant response rating, Corn (corn (Zea mays); 500 g ai/ha) | Plant response rating, Pigweed ([5]; 125 g ai/ha) | Plant response rating, Pigweed ([5]; 500 g ai/ha) | Plant response rating, Wheat ([6]; 125 g ai/ha) | Plant response rating, Wheat ([6]; 500 g ai/ha) | Plant response rating, Ragweed ([7]; 125 g ai/ha) | Plant response rating, Ragweed ([7]; 500 g ai/ha) | Plant response rating, Galium ([8]; 125 g ai/ha) | Plant response rating, Galium ([8]; 500 g ai/ha) | Plant response rating, Ryegrass, Italian ([9]; 125 g ai/ha) | Plant response rating, Ryegrass, Italian ([9]; 500 g ai/ha) | also measured
CC(C)CCCOc1c(Br)cccc1Oc1ncc(Cl)cn1 [Compound 11] | 0 | 90 | 100 | 0 | 60 | 100 | 10 | 90 | 30 | 30 | 0 | 80 | 0 | 20 | 0 | 0 | 70 | 100 | 0 | 20 | Plant response rating, Foxtail, Giant ([10]; 125 g ai/ha): 20; Plant response rating, Foxtail, Giant ([10]; 500 g ai/ha): 60; Plant response rating, Kochia (kochia (Kochia scoparia) [11]; 125 g ai/ha): 0; Plant response rating, Kochia (kochia (Kochia scoparia) [11]; 500 g ai/ha): 0; Plant response rating, Blackgrass ([12]; 125 g ai/ha): 0; Plant response rating, Blackgrass ([12]; 500 g ai/ha): 40; Plant response rating, Barnyardgrass [13]: 0; Plant response rating, Barnyardgrass ([14]; 125 g ai/ha): 20; Plant response rating, Barnyardgrass ([14]; 500 g ai/ha): 90; Plant response rating, Kochia (kochia (Kochia scoparia) [15]; 125 g ai/ha): 20; Plant response rating, Kochia (kochia (Kochia scoparia) [15]; 500 g ai/ha): 90; Plant response rating, Ragweed ([16]; 125 g ai/ha): 0; Plant response rating, Ragweed ([16]; 500 g ai/ha): 0; Plant response rating, Ducksalad [17]: 0; Plant response rating, Ryegrass, Italian ([18]; 125 g ai/ha): 0; Plant response rating, Ryegrass, Italian ([18]; 500 g ai/ha): 30
CC(C)CCOc1c(Br)cccc1Oc1ncc(Cl)cn1 [Compound 12] | 0 | 90 | 100 | 0 | 70 | 100 | 10 | 100 | 30 | 30 | 40 | 100 | 0 | 20 | 10 | 20 | 70 | 100 | 0 | 30 | Plant response rating, Foxtail, Giant ([10]; 125 g ai/ha): 10; Plant response rating, Foxtail, Giant ([10]; 500 g ai/ha): 100; Plant response rating, Kochia (kochia (Kochia scoparia) [11]; 125 g ai/ha): 0; Plant response rating, Kochia (kochia (Kochia scoparia) [11]; 500 g ai/ha): 70; Plant response rating, Blackgrass ([12]; 125 g ai/ha): 20; Plant response rating, Blackgrass ([12]; 500 g ai/ha): 60; Plant response rating, Barnyardgrass [13]: 0; Plant response rating, Barnyardgrass ([14]; 125 g ai/ha): 70; Plant response rating, Barnyardgrass ([14]; 500 g ai/ha): 100; Plant response rating, Kochia (kochia (Kochia scoparia) [15]; 125 g ai/ha): 90; Plant response rating, Kochia (kochia (Kochia scoparia) [15]; 500 g ai/ha): 100; Plant response rating, Ragweed ([16]; 125 g ai/ha): 0; Plant response rating, Ragweed ([16]; 500 g ai/ha): 0; Plant response rating, Ducksalad [17]: 0; Plant response rating, Ryegrass, Italian ([18]; 125 g ai/ha): 0; Plant response rating, Ryegrass, Italian ([18]; 500 g ai/ha): 40
N#Cc1cccc(Oc2ncc(Cl)cn2)c1OCC(F)(F)C(F)F [Compound 14] | 0 | 100 | 100 | 0 | 100 | 100 | 80 | 100 | 20 | 50 | 100 | 100 | 20 | 40 | 10 | 20 | 50 | 100 | 10 | 50 | Plant response rating, Foxtail, Giant ([10]; 125 g ai/ha): 80; Plant response rating, Foxtail, Giant ([10]; 500 g ai/ha): 100; Plant response rating, Kochia (kochia (Kochia scoparia) [11]; 125 g ai/ha): 90; Plant response rating, Kochia (kochia (Kochia scoparia) [11]; 500 g ai/ha): 100; Plant response rating, Blackgrass ([12]; 125 g ai/ha): 60; Plant response rating, Blackgrass ([12]; 500 g ai/ha): 90; Plant response rating, Barnyardgrass [13]: 0; Plant response rating, Barnyardgrass ([14]; 125 g ai/ha): 90; Plant response rating, Barnyardgrass ([14]; 500 g ai/ha): 100; Plant response rating, Kochia (kochia (Kochia scoparia) [15]; 125 g ai/ha): 100; Plant response rating, Kochia (kochia (Kochia scoparia) [15]; 500 g ai/ha): 100; Plant response rating, Ragweed ([16]; 125 g ai/ha): 0; Plant response rating, Ragweed ([16]; 500 g ai/ha): 0; Plant response rating, Ducksalad [17]: 0; Plant response rating, Ryegrass, Italian ([18]; 125 g ai/ha): 10; Plant response rating, Ryegrass, Italian ([18]; 500 g ai/ha): 70
N#Cc1cccc(Oc2ncc(Cl)cn2)c1OCC(F)F [Compound 16] | 0 | 100 | 100 | 0 | 90 | 100 | 20 | 90 | 20 | 70 | 100 | 100 | 0 | 20 | 10 | 60 | 30 | 90 | 0 | 80 | Plant response rating, Foxtail, Giant ([10]; 125 g ai/ha): 30; Plant response rating, Foxtail, Giant ([10]; 500 g ai/ha): 100; Plant response rating, Kochia (kochia (Kochia scoparia) [11]; 125 g ai/ha): 100; Plant response rating, Kochia (kochia (Kochia scoparia) [11]; 500 g ai/ha): 100; Plant response rating, Blackgrass ([12]; 125 g ai/ha): 10; Plant response rating, Blackgrass ([12]; 500 g ai/ha): 90; Plant response rating, Barnyardgrass [13]: 0; Plant response rating, Barnyardgrass ([14]; 125 g ai/ha): 80; Plant response rating, Barnyardgrass ([14]; 500 g ai/ha): 100; Plant response rating, Kochia (kochia (Kochia scoparia) [15]; 125 g ai/ha): 100; Plant response rating, Kochia (kochia (Kochia scoparia) [15]; 500 g ai/ha): 100; Plant response rating, Ragweed ([16]; 125 g ai/ha): 60; Plant response rating, Ragweed ([16]; 500 g ai/ha): 90; Plant response rating, Ducksalad [17]: 30; Plant response rating, Ryegrass, Italian ([18]; 125 g ai/ha): 10; Plant response rating, Ryegrass, Italian ([18]; 500 g ai/ha): 40
